Entries after “also recorded” stand apart in the source; their conditions may differ. Like-named read-outs stand apart in the source and are kept apart here.
What was measured:
murine L1210 cell line = details: cited from earlier work
[1] = biological target: T1, dihydrofolate reductase (DHFR) (Mus musculus, UniProt P00375); details: relative to L1210 growth inhibition; cited from earlier work
T1 sequence (P00375 1-187): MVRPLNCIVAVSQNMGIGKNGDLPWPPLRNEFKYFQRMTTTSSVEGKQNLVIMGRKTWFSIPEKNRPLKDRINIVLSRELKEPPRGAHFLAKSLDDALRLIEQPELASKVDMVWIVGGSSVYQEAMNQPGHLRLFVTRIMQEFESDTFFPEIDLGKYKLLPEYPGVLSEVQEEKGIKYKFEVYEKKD

T cell lymphoma [2] = type: in vivo
Method: Each of these patients was also treated with folic acid (1 mg/m^2 daily starting 1 week prior to treatment with PDX) and B12 (1 mg/m^2 monthly) supplementation.

[3] = test system: human tumors (mammary, lung) xenograft; details: cited from earlier work
mesothelioma = details: cited from earlier work
T cell lymphoma [4] = assay: Prior treatment history of the study patients; type: in vivo, human; details: Patient 2: Lymphoblastic Lymphoma, Precursor T-cell; MTX May 2002 through February 2004
[5] = Patient 2: Lymphoblastic Lymphoma, Precursor T-cell, Stage IV, PDX 30 mg/m^2 x 3 weeks every 4 weeks, 3 cycles
[6] = Patient 3: HTLV Associated T-cell Lymphoma, PDX 30 mg/m^2 weekly x 3 every 4 weeks x 2 cycles
[7] = Patient 4: Panniculitic T-cell Lymphoma, PDX 30 mg/m^2 weekly x 4

Structure (SMILES)	Inhibition of growth (murine L1210 cell line)	Inhibition of the enzyme [1]	Overall response of the patients with T-cell lymphoma treated with PDX (T cell lymphoma [2]; 4 patients, PET imaging)	Toxicities (T cell lymphoma [2]; Patient 1: Peripheral T-cell Lymphoma, Stage IV, PDX 135 mg/m^2 x 1 dose)	Response (T cell lymphoma [2]; Patient 1: Peripheral T-cell Lymphoma, Stage IV, PDX 135 mg/m^2 x 1 dose, folic acid and B12 supplementation)	Response (T cell lymphoma [2]; [5])	Toxicities (T cell lymphoma [2]; [5])	Response (T cell lymphoma [2]; [6])	Toxicities (T cell lymphoma [2]; [6])	Response (T cell lymphoma [2]; [7])	Toxicities (T cell lymphoma [2]; [7])	Efficacy against human tumors compared with reference antifolates ([3]; highly purified PDX compositions)	Tumor growth after cessation of therapy ([3]; several weeks after the cessation of therapy)	Efficacy against mesothelioma (mesothelioma)	Response to prior treatment (T cell lymphoma [4])
C#CCC(Cc1cnc2nc(N)nc(N)c2n1)c1ccc(C(=O)N[C@@H](CCC(=O)O)C(=O)O)cc1 (stereo partly drawn) [PDX, 10-Propargyl-10-deazaaminopterin]	inhibitor of growth	to a lesser extent	all four have met criteria for complete remission	Grade 3 stomatitis; neutropenia grade 3; sepsis	Essentially complete remission by PET scan	Complete remission by PET and CT scans	None	Complete remission	None	Clinical complete remission by PET	None	far superior to methotrexate; also recorded: superior to edatrexate	no evidence of tumor growth	effective against mesothelioma	
CN(Cc1cnc2nc(N)nc(N)c2n1)c1ccc(C(=O)N[C@@H](CCC(=O)O)C(=O)O)cc1 [methotrexate]															essentially methotrexate resistant disease
